According to publication PMC7531004, “Discovery of gramicidin A analogues with altered activities by multidimensional screening of a one-bead-one-compound library” (Nature Communications, 2020):
Where a SMILES comes first, the peptide text is derived from it. [ ]: non-standard residue; d: D form. The star is where a group is joined. NHCH2CH2OH = OCCN*; For = O=C*

How the values were obtained:
[1] = test system: Streptococcus pyogenes SSI-9; assay: Antibacterial activity assay of bead-derived peptides (three concentrations); assay type: cell-based; set-up: key: +++: inhibition by the 640-fold diluted peptide solution; ++: inhibition by the 160-fold diluted solution; +: inhibition by the 40-fold diluted solution; -: no inhibition; settings: S. pyogenes, bead-derived peptide solution, three concentrations
In short: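 First, each peptide stock was diluted 4- and 16-fold in DMSO; next, the three solutions were mixed with S. pyogenes SSI-9 suspension (2 × 10^5 CFU) in cation-adjusted Mueller Hinton Broth plus 5% laked horse blood; finally, plates stood 18 h at 37 °C before checking for grown-cell precipitation.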

[2] = cell viability/%
In short: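 Peptide stocks diluted 250× in growth medium; P388 cells 1 × 10^4 cells/mL final; 37 °C, 5% CO2, 92 h. WST-1 + 1-methoxy PMS, 4 h, A415. Output: % viability.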

[3] = H+/Na+ transport assay of bead-derived peptides (one-point); assay type: biochemical; set-up: key: relative activity; mean of two control wells = 1.00; settings: bead-derived peptide solution, EYPC/EYPG LUVs;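 note: relative to parent gramicidin A activity set to 1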
In short: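 Miniaturized 96-well format. LUVs with entrapped pyranine (1.0 mM) were exposed to peptide for 30 min at RT. Intensities were expressed relative to full lysis by Triton X-100 and no treatment, with control-well mean = 1.00.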

Row | Compound | antibacterial activity [1] | viability [2] [%] | H+/Na+ transport activity normalized against the value of 1 (1.00) [3]
1 | CNC(=O)C[C@@H](NC(=O)[C@H](Cc1c[nH]c2ccccc12)NC(=O)[C@@H](CC(C)C)NC(=O)[C@H](Cc1c[nH]c2ccccc12)NC(=O)[C@H](NC(=O)[C@H](Cc1c[nH]c2ccccc12)NC(=O)[C@@H](CC(C)C)NC(=O)[C@@H](NC(=O)[C@@H](CC(C)C)NC(=O)[C@H](C)NC(=O)[C@@H](CC(C)C)NC(=O)[C@H](C)NC(=O)CNC(=O)[C@@H](NC=O)C(C)C)C(C)C)C(C)C)C(=O)N[C@@H](Cc1c[nH]c2ccccc12)C(=O)NCCO [compound 3854] (For-VGA[dL]A[dL]V[dL]W[dV]W[dL]W[dD](NHMe)W-NHCH2CH2OH) | - | 100 | 1.18
2 | CNC(=O)C[C@@H](NC(=O)[C@H](Cc1c[nH]c2ccccc12)NC(=O)[C@H](NC(=O)[C@H](Cc1c[nH]c2ccccc12)NC(=O)[C@@H](CC(C)C)NC(=O)[C@H](Cc1c[nH]c2ccccc12)NC(=O)[C@H](NC(=O)[C@@H](NC(=O)[C@@H](CC(C)C)NC(=O)[C@H](C)NC(=O)[C@@H](CC(C)C)NC(=O)[C@H](C)NC(=O)CNC(=O)[C@@H](NC=O)C(C)C)C(C)C)C(C)C)C(C)C)C(=O)N[C@@H](Cc1c[nH]c2ccccc12)C(=O)NCCO [compound 8516] (For-VGA[dL]A[dL]V[dV]W[dL]W[dV]W[dD](NHMe)W-NHCH2CH2OH) | - | 48.7 | 1.09
3 | CC(C)C[C@@H](NC(=O)[C@H](C)NC(=O)CNC(=O)[C@@H](NC=O)C(C)C)C(=O)N[C@@H](C)C(=O)N[C@@H](C(=O)N[C@H](C(=O)N[C@@H](C(=O)N[C@@H](Cc1c[nH]c2ccccc12)C(=O)N[C@@H](C(=O)N[C@@H](Cc1c[nH]c2ccccc12)C(=O)N[C@@H](C(=O)N[C@@H](Cc1c[nH]c2ccccc12)C(=O)N[C@H](CC(C)C)C(=O)N[C@@H](Cc1c[nH]c2ccccc12)C(=O)NCCO)C(C)C)C(C)C)[C@H](C)O)C(C)C)C(C)C [compound 285] (For-VGA[dL]A[dV]V[dT]W[dV]W[dV]W[dL]W-NHCH2CH2OH) | - | 100 | 1.08
4 | CC(C)C[C@@H](NC(=O)[C@H](C)NC(=O)CNC(=O)[C@@H](NC=O)C(C)C)C(=O)N[C@@H](C)C(=O)N[C@@H](C(=O)N[C@H](C(=O)N[C@H](CC(C)C)C(=O)N[C@@H](Cc1c[nH]c2ccccc12)C(=O)N[C@@H](C(=O)N[C@@H](Cc1c[nH]c2ccccc12)C(=O)N[C@@H](C(=O)N[C@@H](Cc1c[nH]c2ccccc12)C(=O)N[C@@H](C(=O)N[C@@H](Cc1c[nH]c2ccccc12)C(=O)NCCO)C(C)C)C(C)C)C(C)C)C(C)C)[C@H](C)O [compound 3733] (For-VGA[dL]A[dT]V[dL]W[dV]W[dV]W[dV]W-NHCH2CH2OH) | - | 100 | 1.11
5 | CNC(=O)C[C@@H](NC(=O)[C@@H](NC(=O)[C@@H](CC(C)C)NC(=O)[C@H](C)NC(=O)[C@H](NC(=O)[C@H](C)NC(=O)CNC(=O)[C@@H](NC=O)C(C)C)C(C)C)C(C)C)C(=O)N[C@@H](Cc1c[nH]c2ccccc12)C(=O)N[C@H](CC(C)C)C(=O)N[C@@H](Cc1c[nH]c2ccccc12)C(=O)N[C@@H](C(=O)N[C@@H](Cc1c[nH]c2ccccc12)C(=O)N[C@H](CC(C)C)C(=O)N[C@@H](Cc1c[nH]c2ccccc12)C(=O)NCCO)C(C)C [compound 6541] (For-VGA[dV]A[dL]V[dD](NHMe)W[dL]W[dV]W[dL]W-NHCH2CH2OH) | - | 100 | 1.14
6 | CC(C)C[C@@H](NC(=O)[C@H](Cc1c[nH]c2ccccc12)NC(=O)[C@@H](CC(C)C)NC(=O)[C@H](Cc1c[nH]c2ccccc12)NC(=O)[C@H](NC(=O)[C@H](Cc1c[nH]c2ccccc12)NC(=O)[C@H](NC(=O)[C@@H](NC(=O)[C@H](NC(=O)[C@H](C)NC(=O)[C@H](NC(=O)[C@H](C)NC(=O)CNC(=O)[C@@H](NC=O)C(C)C)C(C)C)C(C)C)C(C)C)C(C)C)C(C)C)C(=O)N[C@@H](Cc1c[nH]c2ccccc12)C(=O)NCCO [compound 1119] (For-VGA[dV]A[dV]V[dV]W[dV]W[dL]W[dL]W-NHCH2CH2OH) | - | 100 | 1.10
7 | CC(C)C[C@@H](NC(=O)[C@H](C)NC(=O)CNC(=O)[C@@H](NC=O)C(C)C)C(=O)N[C@@H](C)C(=O)N[C@@H](C(=O)N[C@H](C(=O)N[C@H](CC(C)C)C(=O)N[C@@H](Cc1c[nH]c2ccccc12)C(=O)N[C@H](CC(C)C)C(=O)N[C@@H](Cc1c[nH]c2ccccc12)C(=O)N[C@H](CC(C)C)C(=O)N[C@@H](Cc1c[nH]c2ccccc12)C(=O)N[C@@H](C(=O)N[C@@H](Cc1c[nH]c2ccccc12)C(=O)NCCO)C(C)C)C(C)C)[C@H](C)O [compound 8288] (For-VGA[dL]A[dT]V[dL]W[dL]W[dL]W[dV]W-NHCH2CH2OH) | - | 47.4 | 1.02
8 | CC(C)C[C@@H](NC(=O)[C@H](C)NC(=O)[C@H](NC(=O)[C@H](C)NC(=O)CNC(=O)[C@@H](NC=O)C(C)C)C(C)C)C(=O)N[C@H](C(=O)N[C@H](CC(C)C)C(=O)N[C@@H](Cc1c[nH]c2ccccc12)C(=O)N[C@@H](C(=O)N[C@@H](Cc1c[nH]c2ccccc12)C(=O)N[C@@H](C(=O)N[C@@H](Cc1c[nH]c2ccccc12)C(=O)N[C@H](CC(C)C)C(=O)N[C@@H](Cc1c[nH]c2ccccc12)C(=O)NCCO)[C@H](C)O)C(C)C)C(C)C [compound 3205] (For-VGA[dV]A[dL]V[dL]W[dV]W[dT]W[dL]W-NHCH2CH2OH) | - | 90.2 | 1.16
9 | CNC(=O)C[C@@H](NC(=O)[C@@H](NC(=O)[C@@H](CC(C)C)NC(=O)[C@H](C)NC(=O)[C@@H](CC(C)C)NC(=O)[C@H](C)NC(=O)CNC(=O)[C@@H](NC=O)C(C)C)C(C)C)C(=O)N[C@@H](Cc1c[nH]c2ccccc12)C(=O)N[C@@H](C(=O)N[C@@H](Cc1c[nH]c2ccccc12)C(=O)N[C@H](CC(C)C)C(=O)N[C@@H](Cc1c[nH]c2ccccc12)C(=O)N[C@@H](C(=O)N[C@@H](Cc1c[nH]c2ccccc12)C(=O)NCCO)[C@H](C)O)C(C)C [compound 3280] (For-VGA[dL]A[dL]V[dD](NHMe)W[dV]W[dL]W[dT]W-NHCH2CH2OH) | - | 100 | 1.20
10 | CC(C)C[C@@H](NC(=O)[C@H](C)NC(=O)[C@H](NC(=O)[C@H](C)NC(=O)CNC(=O)[C@@H](NC=O)C(C)C)C(C)C)C(=O)N[C@H](C(=O)N[C@H](CC(C)C)C(=O)N[C@@H](Cc1c[nH]c2ccccc12)C(=O)N[C@@H](C(=O)N[C@@H](Cc1c[nH]c2ccccc12)C(=O)N[C@H](CC(C)C)C(=O)N[C@@H](Cc1c[nH]c2ccccc12)C(=O)N[C@H](CC(C)C)C(=O)N[C@@H](Cc1c[nH]c2ccccc12)C(=O)NCCO)[C@H](C)O)C(C)C [compound 11400] (For-VGA[dV]A[dL]V[dL]W[dT]W[dL]W[dL]W-NHCH2CH2OH) | + | 53 | 1.03
11 | CC(C)[C@H](NC=O)C(=O)NCC(=O)N[C@@H](C)C(=O)N[C@@H](C(=O)N[C@@H](C)C(=O)N[C@@H](C(=O)N[C@H](C(=O)N[C@@H](C(=O)N[C@@H](Cc1c[nH]c2ccccc12)C(=O)N[C@@H](C(=O)N[C@@H](Cc1c[nH]c2ccccc12)C(=O)N[C@@H](C(=O)N[C@@H](Cc1c[nH]c2ccccc12)C(=O)N[C@@H](C(=O)N[C@@H](Cc1c[nH]c2ccccc12)C(=O)NCCO)C(C)C)C(C)C)[C@H](C)O)C(C)C)C(C)C)C(C)C)C(C)C [compound 532] (For-VGA[dV]A[dV]V[dV]W[dT]W[dV]W[dV]W-NHCH2CH2OH) | - | 100 | 1.03
12 | CC(C)C[C@@H](NC(=O)[C@H](C)NC(=O)CNC(=O)[C@@H](NC=O)C(C)C)C(=O)N[C@@H](C)C(=O)N[C@H](CC(C)C)C(=O)N[C@H](C(=O)N[C@H](CC(C)C)C(=O)N[C@@H](Cc1c[nH]c2ccccc12)C(=O)N[C@@H](C(=O)N[C@@H](Cc1c[nH]c2ccccc12)C(=O)N[C@@H](C(=O)N[C@@H](Cc1c[nH]c2ccccc12)C(=O)N[C@H](CC(C)C)C(=O)N[C@@H](Cc1c[nH]c2ccccc12)C(=O)NCCO)[C@H](C)O)[C@H](C)O)C(C)C [compound 3244] (For-VGA[dL]A[dL]V[dL]W[dT]W[dT]W[dL]W-NHCH2CH2OH) | - | 100 | 1.03
13 | CC(C)C[C@@H](NC(=O)[C@H](C)NC(=O)[C@H](NC(=O)[C@H](C)NC(=O)CNC(=O)[C@@H](NC=O)C(C)C)[C@H](C)O)C(=O)N[C@H](C(=O)N[C@@H](C(=O)N[C@@H](Cc1c[nH]c2ccccc12)C(=O)N[C@@H](C(=O)N[C@@H](Cc1c[nH]c2ccccc12)C(=O)N[C@@H](C(=O)N[C@@H](Cc1c[nH]c2ccccc12)C(=O)N[C@H](CC(C)C)C(=O)N[C@@H](Cc1c[nH]c2ccccc12)C(=O)NCCO)C(C)C)[C@H](C)O)C(C)C)C(C)C [compound 7225] (For-VGA[dT]A[dL]V[dV]W[dT]W[dV]W[dL]W-NHCH2CH2OH) | - | 100 | 1.14
